Measured values reported in ChEMBL document CHEMBL1126472, “Multipurpose receptor ligands: -carboline cholecystokinin antagonists” (Bioorg Med Chem Lett, 1993).

target: T1, Cholecystokinin receptor type A (Rattus norvegicus, UniProt P30551); assay: Tested for its activity to inhibit the binding of [125I]CCK-33 to Cholecystokinin type A receptor in rat pancreas
T1 sequence (P30551 whole entry): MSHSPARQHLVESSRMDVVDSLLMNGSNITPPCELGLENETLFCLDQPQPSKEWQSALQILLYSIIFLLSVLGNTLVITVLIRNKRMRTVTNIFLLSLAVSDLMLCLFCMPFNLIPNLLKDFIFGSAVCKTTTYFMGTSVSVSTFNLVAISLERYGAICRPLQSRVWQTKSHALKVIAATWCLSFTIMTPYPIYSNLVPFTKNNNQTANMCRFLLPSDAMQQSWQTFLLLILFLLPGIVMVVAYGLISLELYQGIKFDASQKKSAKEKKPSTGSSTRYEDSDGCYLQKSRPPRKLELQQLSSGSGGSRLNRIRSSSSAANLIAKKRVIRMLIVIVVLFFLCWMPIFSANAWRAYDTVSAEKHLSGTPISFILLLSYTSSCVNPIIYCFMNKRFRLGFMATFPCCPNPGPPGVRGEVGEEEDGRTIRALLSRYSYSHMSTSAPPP

Row | SMILES | IC50 [nM]
1 | O=C(CCc1ccccc1)Nc1cc2c3ccccc3nc-2c[nH]1 | 330
2 | Cn1c(C(=O)Nc2cc3c4ccccc4nc-3c[nH]2)cc2ccccc21 | 710
3 | O=C(Nc1ccc(Cl)cc1)Nc1cc2c3ccccc3nc-2c[nH]1 | 85
4 | O=C(Cc1ccccc1)Nc1cc2c3ccccc3nc-2c[nH]1 | 40
5 | O=C(Nc1cc2c3ccccc3nc-2c[nH]1)c1ccccc1 | 7100
6 | Nc1cc2c(cn1)[nH]c1ccccc12 | > 100000
7 | CN1C(=O)[C@@H](NC(=O)Nc2cc3c4ccccc4nc-3c[nH]2)N=C(c2ccccc2)c2ccccc21 | 110
8 | O=C(Nc1cc2c3ccccc3nc-2c[nH]1)c1ccc(Cl)cc1 | 3500
9 | O=C(Cc1c[nH]c2ccccc12)Nc1cc2c3ccccc3nc-2c[nH]1 | 24
10 | CN1C(=O)C(NC(=O)Cc2c[nH]c3ccccc23)N=C(c2ccccc2)c2ccccc21 (stereo unspecified) | 1000
11 | CN1C(=O)[C@H](NC(=O)Nc2cc3c4ccccc4nc-3c[nH]2)N=C(c2ccccc2)c2ccccc21 | 89
12 | COC(=O)c1cc2c(cn1)[nH]c1ccccc12 [BETA-CCM] | > 100000

target: not listed separately; assay: Tested for its activity to inhibit the binding of [125I]gastrin to gastric glands (gastrin) in guinea pig

Row | SMILES | IC50 [nM]
13 | CN1C(=O)[C@H](NC(=O)Nc2ccc(Cl)cc2)N=C(c2ccccc2)c2ccccc21 | 12
14 | CN1C(=O)[C@@H](NC(=O)Nc2ccc(Cl)cc2)N=C(c2ccccc2)c2ccccc21 | 540

target: not listed separately; assay: Tested for its activity to inhibit the binding of [125I]CCK-33 to Cholecystokinin type B receptor in guinea pig brain

Row | SMILES | IC50 [nM]
15 | CN1C(=O)[C@H](NC(=O)Nc2ccc(Cl)cc2)N=C(c2ccccc2)c2ccccc21 | 5.5
16 | CN1C(=O)[C@@H](NC(=O)Nc2ccc(Cl)cc2)N=C(c2ccccc2)c2ccccc21 | 410
